For 30 compounds, IC50 results are on record in patent US20250320193A1, “OXOISOINDOLINYL SUBSTITUTED PIPERIDINEDIONE DERIVATIVE AND USE THEREOF” (GLUETACS THERAPEUTICS (SHANGHAI) CO., LTD., priority 2022, published 2025).

SMILES strings stand for the structures.

human Cereblon WT GST-tagged protein, sequence (Q96SW2 whole entry): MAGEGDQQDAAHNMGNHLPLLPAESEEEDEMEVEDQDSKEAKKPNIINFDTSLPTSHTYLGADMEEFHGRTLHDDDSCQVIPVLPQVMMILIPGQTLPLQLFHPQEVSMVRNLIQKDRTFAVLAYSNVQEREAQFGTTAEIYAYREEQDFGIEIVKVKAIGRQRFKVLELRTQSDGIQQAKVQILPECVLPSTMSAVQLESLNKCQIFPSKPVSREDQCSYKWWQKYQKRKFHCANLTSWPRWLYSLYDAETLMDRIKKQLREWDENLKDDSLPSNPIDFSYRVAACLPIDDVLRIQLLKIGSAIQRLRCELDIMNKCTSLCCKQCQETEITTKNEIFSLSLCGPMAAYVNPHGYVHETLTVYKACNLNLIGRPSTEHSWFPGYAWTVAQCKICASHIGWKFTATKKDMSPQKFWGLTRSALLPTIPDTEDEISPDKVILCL

For the assay, the target named is human Cereblon WT GST-tagged protein (Homo sapiens (Human), UniProt Q96SW2). Briefly: CRBN-binding affinity, HTRF (CEREBLON BINDING kit, CISBIO). The settings on record: HTRF inhibitory activity. The method, then:
I. Determination of CRBN-binding affinity of compounds of the present disclosure:
The CEREBLON BINDING kits (specification: 10,000 tests; product number: Catalog #64BDCRBNPEH; CISBIO company) was used to determine the CRBN binding ability of the compounds to be tested through a HTRF method (homogeneous time-resolved fluorescence). The specific methods are as follows: • 1. […] Then, 2.5 μL of human Cereblon WT GST-tagged protein solution was added to each well. Finally, 5 μL of the thoroughly mixed Thalidomide-Red reagent and GST Eu antibody working solution were added to each of the aforementioned wells. […] The blank control wells were sequentially added with 2.5 μL of diluent #9 (1X) solution, 2.5 μL of PROTAC binding buffer, and 5 μL of thoroughly mixed Thalidomide-Red reagent and GST Eu antibody working solution. • 4.
The corresponding CRBN binding inhibition rate was calculated using the following method: […]
OD 620 nmcompound is the absorbance value of each well of the compounds to be tested of the present disclosure at an emission wavelength of 620 nm. […] OD 620 nmcontrol is the absorbance value of the blank control well at an emission wavelength of 620 nm. […] OD 620 nmStd0 is the absorbance value of the solvent control well at an emission wavelength of 620 nm.
The compound `O=C1CCC(N2Cc3cc(CN4CCN(C(c5ccc(Cl)cc5)c5ccc(Cl)cc5)CC4)cc(F)c3C2=O)C(=O)N1` (stereo not drawn) [GT-03568, 3-(5-((4-(bis(4-chlorophenyl)methyl)piperazin-1-yl)methyl)-7-fluoro-1-oxoisoindolin-2-yl)piperidine-2,6-dione] had an IC50 of 1000 to 1900 nM. For `O=C1CCC(N2Cc3c(ccc(CN4C[C@H]5C[C@@H]4CN5C(c4ccccc4)c4ccccc4)c3F)C2=O)C(=O)N1` (stereo partly drawn) [GT-03573, 3-(5-(((1R,4R)-5-benzhydryl-2,5-diazabicyclo[2.2.1]heptan-2-yl)methyl)-4-fluoro-1-oxoisoindolin-2-yl)piperidine-2,6-dione] the value was less than 500 nM. For `O=C1CCC(N2Cc3cc(CN4C[C@H]5C[C@@H]4CN5C(c4ccccc4)c4ccccc4)cc(F)c3C2=O)C(=O)N1` (stereo partly drawn) [GT-03576, 3-(5-(((1R,4R)-5-benzhydryl-2,5-diazabicyclo[2.2.1]heptan-2-yl)methyl)-7-fluoro-1-oxoisoindolin-2-yl)piperidine-2,6-dione] the value was less than 500 nM. For `C[C@@H]1CN(C(c2ccccc2)c2ccccc2)CCN1Cc1cc(F)c2c(c1)CN(C1CCC(=O)NC1=O)C2=O` (stereo partly drawn) [GT-03577, 3-(5-(((R)-4-benzhydryl-2-methylpiperazin-1-yl)methyl)-7-fluoro-1-oxoisoindolin-2-yl)piperidine-2,6-dione] the value was less than 500 nM; for `O=C1CCC(N2Cc3c(CN4CCN(C(c5ccccc5)c5ccccc5)CC4)cccc3C2=O)C(=O)N1` (stereo not drawn) [GT-03646, 3-(4-((4-benzhydrylpiperazin-1-yl)methyl)-1-oxoisoindolin-2-yl)piperidine-2,6-dione], 500 to 1000 nM; for `O=C1CCC(N2Cc3cc(CN4CCN(C(c5ccccc5)c5ccccn5)CC4)cc(F)c3C2=O)C(=O)N1` (stereo not drawn) [GT-03834, 3-(7-fluoro-1-oxo-5-((4-(phenyl(pyridin-2-yl)methyl)piperazin-1-yl)methyl)isoindolin-2-yl)piperidine-2,6-dione], less than 500 nM. `CC1CN(C(c2ccccc2)c2ccccc2)CC(C)N1Cc1cc(F)c2c(c1)CN(C1CCC(=O)NC1=O)C2=O` (stereo not drawn) [GT-03874, 3-(5-((4-benzhydryl-2,6-dimethylpiperazin-1-yl)methyl)-7-fluoro-1-oxoisoindolin-2-yl)piperidine-2,6-dione] returned an IC50 of less than 500 nM. On to `O=C1CCC(N2Cc3c(CN4CCN(C(c5cccc(F)c5)c5cccc(F)c5)CC4)cccc3C2=O)C(=O)N1` (stereo not drawn) [GT-03875, 3-(4-((4-(bis(3-fluorophenyl)methyl)piperazin-1-yl)methyl)-1-oxoisoindolin-2-yl)piperidine-2,6-dione], for which the IC50 lay in the range of 500 to 1000 nM. To `CC1(C)CN(Cc2ccc3c(c2)CN(C2CCC(=O)NC2=O)C3=O)CCN1C(c1ccccc1)c1ccccc1` (stereo not drawn) [GT-04165, 3-(5-((4-benzhydryl-3,3-dimethylpiperazin-1-yl)methyl)-1-oxoisoindolin-2-yl)piperidine-2,6-dione] belongs less than 500 nM.

Turning to `CC1(C)CN(Cc2ccc3c(c2F)CN(C2CCC(=O)NC2=O)C3=O)CCN1C(c1ccccc1)c1ccccc1` (stereo not drawn) [GT-04166, 3-(5-((4-benzhydryl-3,3-dimethylpiperazin-1-yl)methyl)-4-fluoro-1-oxoisoindolin-2-yl)piperidine-2,6-dione], the IC50 was in the range of 500 to 1000 nM. `O=C1CCC(N2Cc3cc(CN4C(=O)c5cccc6cccc(c56)C4=O)ccc3C2=O)C(=O)N1` (stereo not drawn) [GT-04244, 2-((2-(2,6-dioxopiperidin-3-yl)-1-oxoisoindolin-5-yl)methyl)-1H-benzo[de]isoquinoline-1,3(2H)-dione]: the IC50 was less than 500 nM. For `O=C1CCC(N2Cc3ccc(CN4CCN(C(c5ccccc5)c5ccccc5)CC4)cc3C2=O)C(=O)N1` (stereo not drawn) [GT-05686, 3-(6-((4-benzhydrylpiperazin-1-yl)methyl)-1-oxoisoindolin-2-yl)piperidine-2,6-dione] the value was 1000 to 1900 nM. For `O=C1CCC(N2Cc3cc(CN4CCN(C(c5ccccn5)c5ccccn5)CC4)cc(F)c3C2=O)C(=O)N1` (stereo not drawn) [GT-05714, 3-(5-((4-(di(pyridin-2-yl)methyl)piperazin-1-yl)methyl)-7-fluoro-1-oxoisoindolin-2-yl)piperidine-2,6-dione] the value was 1000 to 1900 nM; for `O=C1CCC(N2Cc3c(CN4CCN(C(c5ccccn5)c5ccccn5)CC4)cccc3C2=O)C(=O)N1` (stereo not drawn) [GT-05715, 3-(4-((4-(di(pyridin-2-yl)methyl)piperazin-1-yl)methyl)-1-oxoisoindolin-2-yl)piperidine-2,6-dione], 1000 to 1900 nM; for `O=C1CCC(N2Cc3c(ccc(CN4CCN(C(c5cccnc5)c5cccnc5)CC4)c3F)C2=O)C(=O)N1` (stereo not drawn) [GT-05716, 3-(5-((4-(di(pyridin-3-yl)methyl)piperazin-1-yl)methyl)-4-fluoro-1-oxoisoindolin-2-yl)piperidine-2,6-dione], less than 500 nM. As for `O=C1CCC(N2Cc3ccc(CN4CCN(C(c5ccc(F)cc5)c5ccc(F)cc5)CC4)cc3C2=O)C(=O)N1` (stereo not drawn) [GT-05719, 3-(6-((4-(bis(4-fluorophenyl)methyl)piperazin-1-yl)methyl)-1-oxoisoindolin-2-yl)piperidine-2,6-dione], the IC50 is 500 to 1000 nM. On to `O=C1CCC(N2Cc3cccc(CN4CCN(C(c5ccc(F)cc5)c5ccc(F)cc5)CC4)c3C2=O)C(=O)N1` (stereo not drawn) [GT-05720, 3-(7-((4-(bis(4-fluorophenyl)methyl)piperazin-1-yl)methyl)-1-oxoisoindolin-2-yl)piperidine-2,6-dione], for which the IC50 lay in the range of 1000 to 1900 nM. To `O=C1CCC(N2Cc3c(C(=O)N4CCN(C(c5ccccc5)c5ccccc5)CC4)cccc3C2=O)C(=O)N1` (stereo not drawn) [GT-05721, 3-(4-(4-benzhydrylpiperazine-1-carbonyl)-1-oxoisoindolin-2-yl)piperidine-2,6-dione] belongs 500 to 1000 nM; to `O=C1CCC(N2C(=O)c3ccc(CN4C5CC4CN(C(c4ccccc4)c4ccccc4)C5)cc3C2=O)C(=O)N1` (stereo not drawn) [GT-05728, 5-((3-benzhydryl-3,6-diazabicyclo[3.1.1]heptan-6-yl)methyl)-2-(2,6-dioxopiperidin-3-yl) isoindoline-1,3-dione], 1000 to 1900 nM. As for `O=C1CCC(N2Cc3ccc(CN4CCN(C(c5ccc(Cl)cc5)c5ccc(Cl)cc5)CC4)cc3C2=O)C(=O)N1` (stereo not drawn) [GT-05735, 3-(6-((4-(bis(4-chlorophenyl)methyl)piperazin-1-yl)methyl)-1-oxoisoindolin-2-yl)piperidine-2,6-dione], the IC50 lay in the range of 1000 to 1900 nM. The compound `O=C1CCC(N2Cc3cccc(CN4CCN(C(c5ccc(Cl)cc5)c5ccc(Cl)cc5)CC4)c3C2=O)C(=O)N1` (stereo not drawn) [GT-05736, 3-(7-((4-(bis(4-chlorophenyl)methyl)piperazin-1-yl)methyl)-1-oxoisoindolin-2-yl)piperidine-2,6-dione] came in with an IC50 of 1000 to 1900 nM.

Regarding `O=C1CCC(N2Cc3cc(NN4CCN(C(c5ccccc5)c5ccccc5)CC4)ccc3C2=O)C(=O)N1` (stereo not drawn) [GT-05743, 3-(5-((4-benzhydrylpiperazin-1-yl)amino)-1-oxoisoindolin-2-yl)piperidine-2,6-dione], the IC50 was in the range of 1000 to 1900 nM. For `O=C1CCC(N2Cc3cc(C=C4CN(C(c5ccccc5)c5ccccc5)C4)ccc3C2=O)C(=O)N1` (stereo not drawn) [GT-05745, 3-(5-((1-benzhydrylazetidin-3-ylidene)methyl)-1-oxoisoindolin-2-yl)piperidine-2,6-dione] the value was less than 500 nM.

As for `O=C1CCC(N2Cc3cc(NC4CCN(C(c5ccccc5)c5ccccc5)CC4)ccc3C2=O)C(=O)N1` (stereo not drawn) [GT-05864, 3-(5-((1-benzhydrylpiperidin-4-yl)amino)-1-oxoisoindolin-2-yl)piperidine-2,6-dione], the IC50 was less than 500 nM. Compound `O=C1CCC(N2Cc3cc(N4CC5CCC(C4)N5C(c4ccccc4)c4ccccc4)ccc3C2=O)C(=O)N1` (stereo not drawn) [GT-05865, 3-(5-(8-benzhydryl-3,8-diazabicyclo[3.2.1]octan-3-yl)-1-oxoisoindolin-2-yl)piperidine-2,6-dione] had an IC50 of 500 to 1000 nM.

Consider `O=C1CCC(N2Cc3cc(-c4ccc(CN5CCN(C(c6ccccc6)c6ccccc6)CC5)cc4)ccc3C2=O)C(=O)N1` (stereo not drawn) [GT-05867, 3-(5-(4-((4-benzhydrylpiperazin-1-yl)methyl)phenyl)-1-oxoisoindolin-2-yl)piperidine-2,6-dione], for which the IC50 is 1000 to 1900 nM. As to `O=C1CCC(N2Cc3cc(C(=O)N4CCN(C(c5ccc(Cl)cc5)c5ccc(Cl)cc5)CC4)cc(F)c3C2=O)C(=O)N1` (stereo not drawn) [GT-05887, 3-(5-(4-(bis(4-chlorophenyl)methyl)piperazine-1-carbonyl)-7-fluoro-1-oxoisoindolin-2-yl)piperidine-2,6-dione], the IC50 was 1000 to 1900 nM. Take `O=C1CCC(N2Cc3ccc(C(=O)N4CCN(C(c5ccc(Cl)cc5)c5ccc(Cl)cc5)CC4)cc3C2=O)C(=O)N1` (stereo not drawn) [GT-05888, 3-(6-(4-(bis(4-chlorophenyl)methyl)piperazine-1-carbonyl)-1-oxoisoindolin-2-yl)piperidine-2,6-dione]: the IC50 was 1000 to 1900 nM. Compound `O=C1CCC(N2Cc3cc(CN4C[C@@H]5C[C@H]4CN5C(c4ccccc4)c4ccccc4)cc(F)c3C2=O)C(=O)N1` (stereo partly drawn) [GT-05895, 3-(5-(((1S,4S)-5-benzhydryl-2,5-diazabicyclo[2.2.1]heptan-2-yl)methyl)-7-fluoro-1-oxoisoindolin-2-yl)piperidine-2,6-dione] yielded an IC50 of less than 500 nM. For the compound `O=C1CCC(N2Cc3cc(CN4CC5CCC(C4)N5C(c4ccccc4)c4ccccc4)c(F)cc3C2=O)C(=O)N1` (stereo not drawn) [GT-05896, 3-(5-((8-benzhydryl-3,8-diazabicyclo[3.2.1]octan-3-yl)methyl)-6-fluoro-1-oxoisoindolin-2-yl)piperidine-2,6-dione], the IC50 fell in the range of 500 to 1000 nM.
